Reference: patent US8168651B2, “Protein kinase modulators” (Cylene Pharmaceuticals, Inc., priority 2008, dated 2012)
Like-named read-outs stand apart in the source and are kept apart here.

Legend:
[1] = system: HCT-116 human colorectal carcinoma cells; assay: Cell-proliferation assay using Alamar Blue dye; format: cell-based; details: Homo sapiens;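 further: cells exposed to compound for about 4 days, then Alamar Blue added and dye fluorescence read after about 4 h, compared with medium-only control wells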
[2] = target: recombinant human PIM1 (Homo sapiens (Human), UniProt P11309); assay: PIM-1 kinase activity in cell-free in vitro assay; format: biochemical; details: for inhibition at 0.5 µM: 500 nM compound, read-out: PIM-1: % inh 500 nM
[3] = system: K-562; assay: Cell proliferation modulatory activity, K-562; format: cell-based; details: Homo sapiens, K562
[4] = target: recombinant human CK2 (Homo sapiens (Human), UniProt P68400); assay: CK2 assay (cell-free, 33P-ATP filter plate); format: biochemical; details: 500 nM compound, cell-free assay; read-out: CK2: % inh 500 nM
[5] = system: MV-4-11; assay: Cell proliferation modulatory activity, MV-4-11; format: cell-based; details: Homo sapiens, MV4-11
[6] = system: K-562; assay: Cell proliferation modulatory activity, K-562; format: cell-based; details: Homo sapiens, K562; K-562 cells; read-out: K-562 (uM), cell proliferation modulatory activity
[7] = system: MV-4-11; assay: Cell proliferation modulatory activity, MV-4-11; format: cell-based; details: Homo sapiens, MV4-11; MV-4-11 cells; read-out: MV-4-11 (uM), cell proliferation modulatory activity
[8] = target: PIM2 (Homo sapiens (Human), UniProt Q9P1W9); assay: PIM2 IC50; format: biochemical; details: Table 45
[9] = system: Jurkat; assay: Cell proliferation modulatory activity, Jurkat; format: cell-based; details: Homo sapiens
[10] = HCT-116, HCT-116, second HCT-116 column (c8), read-out: HCT-116 (uM), cell proliferation modulatory activity
[11] = HCT-116, second of two HCT-116 columns (c8), read-out: HCT-116 (uM), cell proliferation modulatory activity
[12] = HCT-116, read-out: HCT-116 (uM), cell proliferation modulatory activity, HCT-116, second HCT-116 column (c8)

Sequence of recombinant human PIM1 (P11309 whole entry): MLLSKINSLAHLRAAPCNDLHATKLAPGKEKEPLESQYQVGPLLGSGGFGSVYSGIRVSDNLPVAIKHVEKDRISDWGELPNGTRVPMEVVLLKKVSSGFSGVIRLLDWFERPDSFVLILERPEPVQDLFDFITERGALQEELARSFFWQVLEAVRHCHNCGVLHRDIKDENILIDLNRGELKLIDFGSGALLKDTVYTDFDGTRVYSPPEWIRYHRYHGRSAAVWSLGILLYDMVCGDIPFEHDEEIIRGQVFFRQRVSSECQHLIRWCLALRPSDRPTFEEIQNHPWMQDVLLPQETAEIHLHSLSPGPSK
Sequence of PIM2 (Q9P1W9 whole entry): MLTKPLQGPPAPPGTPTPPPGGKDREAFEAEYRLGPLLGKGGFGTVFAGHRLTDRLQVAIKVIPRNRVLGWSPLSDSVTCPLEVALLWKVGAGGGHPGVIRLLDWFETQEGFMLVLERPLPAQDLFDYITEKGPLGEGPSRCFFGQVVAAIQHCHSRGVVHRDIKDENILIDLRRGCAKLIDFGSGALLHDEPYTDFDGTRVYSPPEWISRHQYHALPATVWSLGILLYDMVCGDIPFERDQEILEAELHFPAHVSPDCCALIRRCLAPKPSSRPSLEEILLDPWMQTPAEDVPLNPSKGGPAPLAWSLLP
Sequence of recombinant human CK2 (P68400 whole entry): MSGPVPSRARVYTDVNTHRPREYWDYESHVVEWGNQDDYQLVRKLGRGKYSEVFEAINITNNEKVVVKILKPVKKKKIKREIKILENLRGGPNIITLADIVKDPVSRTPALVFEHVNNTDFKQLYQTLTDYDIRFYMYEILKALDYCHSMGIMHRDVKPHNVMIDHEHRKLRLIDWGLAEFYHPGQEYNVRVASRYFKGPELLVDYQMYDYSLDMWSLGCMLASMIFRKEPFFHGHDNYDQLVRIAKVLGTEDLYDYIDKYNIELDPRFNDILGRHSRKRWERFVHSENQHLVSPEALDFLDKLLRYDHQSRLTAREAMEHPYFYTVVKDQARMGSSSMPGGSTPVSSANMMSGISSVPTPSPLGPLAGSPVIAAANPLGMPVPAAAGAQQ
Sequence of recombinant human CK2 (P67870 whole entry partner): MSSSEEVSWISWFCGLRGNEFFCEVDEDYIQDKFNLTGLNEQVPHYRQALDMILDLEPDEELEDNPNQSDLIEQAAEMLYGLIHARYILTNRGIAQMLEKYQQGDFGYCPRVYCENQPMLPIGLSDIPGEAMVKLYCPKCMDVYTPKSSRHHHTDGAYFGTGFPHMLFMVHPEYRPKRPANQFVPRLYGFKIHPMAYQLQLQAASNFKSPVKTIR

| Compound | inhibition at 0.5 µM ([2]; cell-free assay) | IC50 ([2]; Table 45) | IC50 [8] | other results |
| --- | --- | --- | --- | --- |
| O=C(O)c1ccc2c(c1)nc(NCc1cccc3ccccc13)c1ccncc12 | 15.6% | – | – | IC50 [1, 10]: > 10 µM; IC50 [3]: > 10 µM |
| O=C(O)c1ccc2c(c1)nc(NCCc1ccccn1)c1ccncc12 | -8.95% | – | – | inhibition at 0.5 µM [4]: 96.1%; IC50 [1, 10]: > 10 µM; IC50 [3]: > 10 µM; IC50 [5]: > 10 µM |
| Cc1cccc(N2CCN(c3nc4cc(C(=O)O)ccc4c4cnccc34)CC2)c1 | 33.7% | – | – | IC50 [1, 10]: > 10 µM; IC50 [3]: > 10 µM |
| Fc1cc(Cl)cc(Nc2nc3cc(-c4nnn[nH]4)ccc3c3ccsc23)c1 | 22.9% | – | – | inhibition at 0.5 µM [4]: 45.4%; IC50 [1, 11]: > 10 µM; IC50 [6]: > 10 µM |
| FC(F)(F)c1cccc(Nc2nc3cc(-c4nnn[nH]4)ccc3c3ccsc23)c1 | 10.8% | – | – | inhibition at 0.5 µM [4]: 17.4%; IC50 [1, 11]: > 10 µM; IC50 [6]: > 10 µM; IC50 [7]: 1.1 µM |
| Fc1ccc(Nc2nc3cc(-c4nnn[nH]4)ccc3c3ccsc23)cc1Cl | 29.1% | – | – | inhibition at 0.5 µM [4]: 37.6%; IC50 [1, 11]: > 10 µM; IC50 [6]: > 10 µM; IC50 [7]: 0.721 µM |
| Clc1ccc(Nc2nc3cc(-c4nnn[nH]4)ccc3c3ccsc23)cc1 | 40.4% | – | – | inhibition at 0.5 µM [4]: 23.9%; IC50 [1, 11]: > 10 µM; IC50 [6]: > 10 µM; IC50 [7]: > 10 µM |
| Fc1ccc(Nc2nc3cc(-c4nnn[nH]4)ccc3c3ccsc23)cc1 | 54.7% | – | – | inhibition at 0.5 µM [4]: 30.3%; IC50 [1, 11]: > 10 µM; IC50 ([2]; cell-free assay): 0.738 µM; IC50 [6]: > 10 µM; IC50 [7]: > 10 µM |
| c1cc(-c2nc[nH]n2)c2nc(NCc3ccncc3)c3ccncc3c2c1 | – | < 0.5 µM | < 1 µM | – |
| c1ccc(CNc2nc3c(-c4nc[nH]n4)cccc3c3cnccc23)nc1 | – | < 0.5 µM | < 0.5 µM | – |
| CN1CCC(CNc2nc3c(-c4nnc[nH]4)cccc3c3cnccc23)CC1 | – | < 0.5 µM | > 1.1 µM | – |
| c1cncc(CNc2nc3c(-c4nc[nH]n4)cccc3c3cnccc23)c1 | – | < 0.5 µM | > 1.1 µM | – |
| CN1CCN(c2nc3c(-c4nc[nH]n4)cccc3c3cnccc23)CC1 | – | < 1 µM | > 1.1 µM | – |
| NC(=O)c1cc(F)cc2c1nc(Nc1cccc(Cl)c1)c1ccncc12 | – | < 1 µM | > 1.1 µM | – |
| c1cc(-c2nc[nH]n2)c2nc(NCCN3CCOCC3)c3ccncc3c2c1 | – | < 5 µM | > 1.1 µM | – |
| CN(C)CCNc1nc2c(-c3nc[nH]n3)cccc2c2cnccc12 | – | < 5 µM | > 1.1 µM | – |
| CCN1CCCC1CNc1nc2c(-c3nc[nH]n3)cccc2c2cnccc12 (centres unmarked) | – | > 1.1 µM | > 1.1 µM | – |
| O=C(O)c1cc(F)cc2c1nc(Nc1cccc(Cl)c1)c1ccncc12 | – | > 1.1 µM | > 1.1 µM | – |
| O=C(O)c1cc(F)cc2c1nc(Nc1cccc(Cl)c1)c1cnccc12 | – | > 1.1 µM | > 1.1 µM | – |
| O=C(O)c1ccc2c(c1)nc(NC1CC1)c1nc(NCc3ccccc3)ncc12 [drawing 1617] | 34.5% | – | – | IC50 [1, 12]: > 10 µM; IC50 [9]: 8.82 µM |
| O=C(O)c1ccc2c(c1)nc(NC1CC1)c1nc(Nc3ccccc3)ncc12 [drawing 1618] | 46% | – | – | IC50 [1, 12]: > 10 µM; IC50 [9]: 4.6 µM |
| O=C(O)c1ccc2c(c1)nc(N1CCOCC1)c1nc(NC3CC3)ncc12 [drawing 1627] | 26% | – | – | IC50 [1, 10]: > 10 µM; IC50 [9]: 3.67 µM |
| COC(=O)c1ccc2c(c1)nc(NC1CC1)c1nc(SC)ncc12 [drawing 1641] | 17.1% | – | – | IC50 [1, 10]: > 10 µM; IC50 [9]: > 50 µM |
| CN(C)CCNc1nc2cc(C(=O)O)ccc2c2cnc(NC3CC3)nc12 [drawing 1642] | -37.5% | – | – | IC50 [1, 10]: > 10 µM; IC50 [9]: 34 µM |
| CCCNc1ncc2c(n1)c(NC1CC1)nc1cc(C(=O)O)ccc12 [drawing 1645] | 13.2% | – | – | IC50 [1, 12]: > 10 µM; IC50 [9]: 9.37 µM |
| Fc1cc(-c2nnc[nH]2)c2nc(Nc3cccc(Cl)c3)c3ccncc3c2c1 [drawing 2259] | – | < 1 µM | < 1 µM | – |
| Fc1cc(-c2nnc[nH]2)c2nc(Nc3cccc(Cl)c3)c3ccncc3c2c1 [drawing 2269] | – | > 1.1 µM | > 1.1 µM | – |
